Legend:
OSNs expressing olfr478 = assay: pS6 immunolabeling with OR in situ hybridization after odorant exposure; type: in vivo, mouse; settings: 5% acetophenone, 60 minutes
Method: (§1) In order to independently validate the identity of an acetophenone receptor obtained with the RNAseq approach, the potential colocalization following acetophenone exposure of a neuronal activity marker (the phosphorylated ribosomal protein S6 (pS6) (Knight et al., 2012, Cell, 151, 1126-1137) and specific olfactory receptors were evaluated. To this aim, in-situ hybridizations were performed on sections of olfactory tissue with probes targeting receptor mRNAs followed by immunolabeling of pS6. The probes used were directed against the transcripts of most of the ORs determined as responsive including Olfr983 transcripts (encoding a known acetophenone receptor), Olfr171 transcripts (encoding a known ethyl isobutyrate receptor), and Olfr145 transcripts, encoding a newly identified receptor by RNAseq. Before analysis, mice were exposed to either 5% acetophenone, 5% ethyl isobutyrate, or a negative control condition for 60 minutes. […] 66% (Olfr983) and 70% (Olfr145) of the neurons were positive for pS6 after acetophenone exposure, while only 11% of the neurons expressing Olfr171 were positive for pS6 after exposure to this compound.

OSNs expressing olfr935 = assay: as above; type: in vivo, mouse; settings: 5% acetophenone, 60 minutes
Method: as §1

OSNs expressing olfr160 = assay: as above; type: in vivo, mouse; settings: 5% acetophenone, 60 minutes
Method: as §1

OSNs expressing olfr19 = assay: as above; type: in vivo, mouse; settings: 5% acetophenone, 60 minutes
Method: as §1

OSNs expressing olfr1377 = assay: as above; type: in vivo, mouse; settings: 5% acetophenone, 60 minutes
Method: as §1

Olfr556 = molecular target: T1, Olfr556 (Mus musculus, UniProt B2RRG2); settings: expressed in HEK cells; previously shown; read-out: EC50 as agonist of Olfr556; cited from earlier work
T1 sequence (B2RRG2 1-324): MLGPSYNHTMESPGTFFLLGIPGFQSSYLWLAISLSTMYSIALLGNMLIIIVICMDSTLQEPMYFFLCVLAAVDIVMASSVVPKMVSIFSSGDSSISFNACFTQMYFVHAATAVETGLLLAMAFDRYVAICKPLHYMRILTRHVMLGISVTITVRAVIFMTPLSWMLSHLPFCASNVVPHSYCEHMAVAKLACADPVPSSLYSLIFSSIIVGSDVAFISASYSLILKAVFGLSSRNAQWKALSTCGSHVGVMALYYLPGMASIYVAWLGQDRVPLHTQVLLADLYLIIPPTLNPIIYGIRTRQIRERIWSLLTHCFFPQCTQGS

Olfr1178 = assay: OR transcript level by RT-qPCR after in vivo odorant exposure; design: species or system mouse; settings: 5% odorant, 5 hours
Method: In vivo exposure to odorant: Starting 48 h before experiments, mice were habituated to pure DMSO on a cotton ball. 200 μl were pipetted directly onto the cotton and placed in the cage, replacing any cotton that was already in the cage for nest-making purposes.
On the day of the experiment, mice receiving odorants were transferred to a different room, where they were exposed to a cotton ball on which 200 μl of odorant diluted in pure DMSO were deposited. Exposures started in the morning between 8 and 10 am (that is two hours after lights were on) and mice were killed and dissected between 1 and 3 pm. […]
RNA concentrations were determined using an Amersham Ultrospec® 3100 Pro spectrophotometer, and RNA quality was evaluated with an Agilent Technologies 2100 Bioanalyzer®. […]
qPCR Ct values were analyzed using an in-house developed Microsoft Excel® macro file. […] Ct values were converted to quantities relative to the maximum for each given gene. Selected reference genes were then analyzed for variance using the geNorm algorithm. […]
Adult C57BL/6 mice were exposed to 5% acetophenone for 5 hours, and the level of transcripts of odorant receptors' genes were measured by RT-qPCR on extracts of olfactory epithelia from these mice, as described in the materials and methods section.

Olfr983 = settings: expressed in HEK cells; previously shown; read-out: EC50 as agonist of Olfr983; cited from earlier work
Olfr1377 = settings: expressed in HEK cells; previously shown; read-out: EC50 as agonist of Olfr1377; cited from earlier work
olfr145 = molecular target: T2, olfr145 (Mus musculus, UniProt Q60882); assay: OR transcript downregulation by RNAseq after in vivo exposure; settings: 5% odorant, 5 hours
T2 construct: from tissue; host or cells: main olfactory epithelium of living mice
Method: Animals were exposed to 5% acetophenone for 5 hours before RNA extraction (as previously described). cDNA libraries were generated with the Truseq RNA and DNA sample preparation kits after selection of polyA-containing mRNAs. Adapters for RNAseq multiplexing were added to the cDNAs. The cDNA libraries were sequenced with a HiSeq®2500 Sequencing system. 100 bp reads were mapped using Bowtie2 with a 28 bp seed. The differential gene expression analyses were performed with DESeq2. Because of the high sequence similarity between OR gene paralogs, some reads are mapped to multiple OR genes. These reads were removed from the analysis.
Mice (n=6) were exposed to 5% acetophenone or to a “neutral” control condition for 5 hours. An olfactory cDNA library corresponding to each animal was deep sequenced and the ratios of odorant receptor mRNA concentrations relative to controls were plotted (FIG. 3). […] Based on transcriptional downregulation levels observed by RNAseq following acetophenone exposure, a list of 26 candidate responsive ORs was determined (FIG. 3), that reached 74% decrease (Olfr145) or even over 80% (Olfr169) relative to controls. […] The transcript downregulation of 21 out of the 26 olfactory receptor candidates obtained by RNAseq was confirmed by qPCR.

T2 sequence (Q60882 whole entry): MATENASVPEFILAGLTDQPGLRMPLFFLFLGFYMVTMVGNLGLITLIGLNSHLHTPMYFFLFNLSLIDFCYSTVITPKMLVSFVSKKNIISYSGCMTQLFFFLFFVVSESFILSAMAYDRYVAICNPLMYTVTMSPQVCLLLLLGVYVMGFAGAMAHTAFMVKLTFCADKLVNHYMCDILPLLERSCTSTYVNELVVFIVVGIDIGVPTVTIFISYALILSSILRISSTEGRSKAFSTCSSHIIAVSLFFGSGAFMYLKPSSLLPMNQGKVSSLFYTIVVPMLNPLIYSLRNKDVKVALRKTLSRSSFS

## CC(=O)c1ccccc1 [acetophenone]
OSNs expressing olfr478
  olfr478 ps6 positive: y (neuronal activation (i.e. pS6 signal in a fraction of neuron exceeding 15% relative to controls))
OSNs expressing olfr935
  olfr935 ps6 positive: y (neuronal activation (i.e. pS6 signal in a fraction of neuron exceeding 15% relative to controls))
OSNs expressing olfr160
  olfr160 ps6 positive: y (neuronal activation (i.e. pS6 signal in a fraction of neuron exceeding 15% relative to controls))
OSNs expressing olfr19
  olfr19 ps6 positive: y (neuronal activation (i.e. pS6 signal in a fraction of neuron exceeding 15% relative to controls))
OSNs expressing olfr1377
  olfr1377 ps6 positive: y (neuronal activation (i.e. pS6 signal in a fraction of neuron exceeding 15% relative to controls))
Olfr556
  EC50: < 50 µM
Olfr1178
  Olfr1178 mRNA concentration increase, fold change: 1.5 fold
Olfr983
  EC50: < 50 µM
Olfr1377
  EC50: < 50 µM
olfr145
  Olfr145 transcript decrease relative to controls (RNAseq): 74%

Source: patent US10473645B2, “Methods for identifying a receptor for a ligand and uses thereof” (UNIVERSITE DE GENEVE, priority 2014, dated 2019)
